Calls of active or inactive are those of the source. No stated cut-off is given here; in the data, actives have a measured IC50 and inactives only a lower limit.

The assay deals with Envelope glycoprotein gp160 (Human immunodeficiency virus 1, UniProt Q6QLK5). The assay is described as follows: inhibitors of HIV fusion peptide binding, primary screen, biochemical, uHTS, fluorescence dequenching (AID 1986).
Chain of Envelope glycoprotein gp160 (Q6QLK5 whole entry, the tested form may be a part): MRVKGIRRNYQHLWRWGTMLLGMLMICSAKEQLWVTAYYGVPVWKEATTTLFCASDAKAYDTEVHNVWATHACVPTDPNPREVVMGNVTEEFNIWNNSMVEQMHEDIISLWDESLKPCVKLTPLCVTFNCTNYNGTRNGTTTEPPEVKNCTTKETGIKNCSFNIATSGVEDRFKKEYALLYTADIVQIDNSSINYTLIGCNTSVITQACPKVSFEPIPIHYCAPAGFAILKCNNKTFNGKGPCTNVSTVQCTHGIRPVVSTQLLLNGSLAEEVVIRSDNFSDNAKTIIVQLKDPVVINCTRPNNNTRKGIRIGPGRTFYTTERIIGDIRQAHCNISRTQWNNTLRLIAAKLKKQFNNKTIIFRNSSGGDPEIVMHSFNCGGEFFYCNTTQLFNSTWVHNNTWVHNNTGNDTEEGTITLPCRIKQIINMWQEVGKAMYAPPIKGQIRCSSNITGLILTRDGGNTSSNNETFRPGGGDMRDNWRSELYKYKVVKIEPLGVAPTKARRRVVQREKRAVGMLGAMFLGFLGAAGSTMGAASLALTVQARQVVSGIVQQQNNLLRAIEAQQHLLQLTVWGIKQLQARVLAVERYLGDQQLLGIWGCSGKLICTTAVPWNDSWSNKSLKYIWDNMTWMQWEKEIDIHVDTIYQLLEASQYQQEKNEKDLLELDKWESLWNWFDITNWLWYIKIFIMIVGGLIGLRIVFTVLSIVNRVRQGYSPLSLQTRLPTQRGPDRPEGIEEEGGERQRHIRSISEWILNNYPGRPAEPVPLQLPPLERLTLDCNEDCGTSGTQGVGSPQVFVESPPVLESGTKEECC

Turning to `CCOC(=O)C1=C(C)N=c2s/c(=C\c3ccc(OCC(=O)O)c(OC)c3)c(=O)n2C1c1ccc(OC)cc1` (stereo unspecified), the half-maximal inhibitory concentration (IC50) (in general, the concentration that inhibits the measured activity by half) was 23.9 µM (active).

For the origin of these results see ChEMBL document CHEMBL1201862, “PubChem BioAssay data set” (2004).
